Test results published in patent publication US20240100473A1, “CARBON DIOXIDE ABSORBER” (MITSUBISHI GAS CHEMICAL COMPANY, INC., priority 2021, published 2024).

Legend:
[1] = Evaluation of absorbed amount of carbon dioxide from air (desiccator); conditions: 5 mmol amine compound in desiccator, air 23° C. and 50% RH, initial CO2 about 400 ppm, after 24 hours
Description: (Evaluation of Absorbed Amount of Carbon Dioxide from Air)
A carbon dioxide concentration meter and a petri dish were placed inside an openable desiccator (Internal Dimension: 370 mm×260 mm×272 mm). The amine compound (5 mmol) was then added to the petri dish in the desiccator, a door was immediately closed, and the carbon dioxide concentration in the desiccator was measured over time for 24 hours under an air environment of 23° C. and 50% RH. The initial concentration of carbon dioxide was adjusted to about 400 ppm. Changes of the carbon dioxide concentration in the desiccator 24 hours after the amine compound was placed in the desiccator are shown in Table 1. Here, it is meant that the greater the change of the carbon dioxide concentration in the desiccator is, the greater the amount of the carbon dioxide absorbed by the carbon dioxide absorbent is.

[2] = Maximum carbon dioxide release temperature of amine compound (DSC); format: physicochemical; conditions: amine compound with CO2 absorbed from air for 24 h; DSC 23 to 250° C., 10° C./min, nitrogen atmosphere
Description: The amine compound (A) is heated with carbon dioxide absorbed from 23° C. to 250° C. at 10° C./minute of a heating rate, and a temperature at which an endothermic amount associated with desorption of carbon dioxide reaches a maximum is measured, and this temperature is taken as the maximum carbon dioxide release temperature. Here, the amine compound (A) with carbon dioxide absorbed can be prepared, for example, by allowing 5 mmol of the amine compound (A) to stand in the air at 23° C. and 50% RH for 24 hours.
(Maximum Carbon Dioxide (CO2) Release Temperature of Amine Compound)
After the above evaluation of the absorbed amount of carbon dioxide from the air was completed, the amine compound was removed from the desiccator as the amine compound having carbon dioxide absorbed. The DSC measurement was performed on the amine compound with carbon dioxide absorbed as follows, to measure the maximum carbon dioxide release temperature of the amine compound. First, the differential scanning calorimetry was performed on the amine compound using the differential thermogravimetric analyzer (Product Name: DTG-60 produced by Shimadzu Corporation) under the conditions of 23 to 250° C. of a measurement temperature range, 10° C./min of the heating rate, and the nitrogen atmosphere. From the DSC curve obtained thereby, the temperature at which the endothermic amount associated with the desorption of carbon dioxide reached the maximum was calculated, and the temperature thereof was used as the maximum carbon dioxide release temperature of the amine compound.

[3] = Maximum endothermic temperature of amine compound (DSC); format: physicochemical; conditions: DSC 23 to 350° C., 10° C./min, nitrogen atmosphere; volatilization of amine compound
Description: Heating the amine compound (A) from 23° C. to 350° C. at 10° C./minute of the heating rate, measuring a temperature at which an endothermic amount associated with the volatilization of the amine compound (A) reaches a maximum, and letting this temperature be the maximum endothermic temperature of the amine compound (A).
(Maximum Endothermic Temperature of Amine Compound)
DSC measurements were performed on the amine compounds used in Examples and Comparative Examples to measure the maximum endothermic temperature of the amine compounds as follows. First, a differential scanning calorimetry was performed on the amine compounds using a differential thermogravimetric analyzer (Product Name: DTG-60 produced by Shimadzu Corporation) under conditions of 23 to 350° C. of a measurement temperature range, 10° C./min of a heating rate, and a nitrogen atmosphere. From the DSC curve obtained thereby, the temperature at which the endothermic amount associated with the volatilization of the amine compound reached the maximum was calculated, and the temperature thereof was used as the maximum endothermic temperature of the amine compound.

[4] = Amine value of amine compound (JIS K7237-1995 titration); format: physicochemical; conditions: 0.1 g in 20 mL acetic acid, titrated with 0.1 N perchloric acid-acetic acid
Description: The amine value can be measured by the following method in accordance with JIS K7237-1995. • (1) Dissolving 0.1 g of the amine compound (A) in 20 mL of acetic acid. • (2) Calculating the amine value by titrating the solution obtained in the above (1) with the 0.1 N perchloric acid-acetic acid solution using the automatic potentiometric titrator (for example, AT-610 produced by Kyoto Electronics Manufacturing Co., Ltd.).
(Amine Value of Amine Compound)
The amine value was measured by the following measurement method in accordance with JIS K7237-1995. • (1) Dissolving 0.1 g of the amine compound in 20 mL of the acetic acid. • (2) Calculating the amine value by titrating the solution obtained in the above (1) with the 0.1 N perchloric acid-acetic acid solution using the automatic potentiometric titrator (AT-610 produced by Kyoto Electronics Manufacturing Co., Ltd.).

[5] = Acid dissociation constant (pKa) by acid-base titration; format: physicochemical; conditions: 0.2 g in 30 mL purified water, 25±2° C.
Description: In the present embodiments, the acid dissociation constant of the amine compound (A) is a value obtained by the following measurement method based on an acid-base titration method. • (1) Dissolving 0.2 g of the amine compound (A) in 30 mL of purified water. • (2) Calculating the acid dissociation constant (pKa) by titrating the solution obtained in the above (1) with 0.1 N perchloric acid-acetic acid solution using an automatic potentiometric titrator (for example, AT-610 produced by Kyoto Electronics Manufacturing Co., Ltd.).
(Acid Dissociation Constant (pKa) of Amine Compound)
The acid dissociation constant of the amine compound was determined by the following method. • (1) Dissolving 0.2 g of the amine compound in 30 mL of the purified water. • (2) Calculating the acid dissociation constant (pKa) by titrating the solution obtained in the above (1) with the 0.1 N perchloric acid-acetic acid solution using the automatic potentiometric titrator (AT-610 produced by Kyoto Electronics Manufacturing Co., Ltd.).
Still, let the temperature at the time of measurement be 25±2° C.

Compound	Evaluation of CO2 Absorbed Amount: Changes of CO2 Concentration, 24h [1] [ppm]	Maximum CO2 Release Temperature [2] [°C]	Maximum Endothermic Temperature [3] [°C]	Amine Value [4] [mgKOH/g]	pKa [5]
NCc1ccco1 [Example 6, Furfurylamine]	188	66.7	92.4	578	9.2
NCc1cccc(CN)c1 [Comparative Example 1, Meta-xylylenediamine, reference compound]	329	135.5	183.5	824	9.5
NCc1cccs1 [Example 5, 2-thiophenemethylamine]	249	83.6	140.1	496	9.5
NCC1CCC(CN)O1 (stereo not drawn) [Example 1, 2,5-bis(aminomethyl)tetrahydrofuran]	300	80.3	155.9	862	9.4
NCC1CCOCC1 [Example 3, 4-aminomethyltetrahydropyran]	389	111.0	127.4	487	10
Cc1ccc(CN)o1 [Example 7, 5-methylfurfurylamine]	226	80.7	115.3	505	9.2
NCCNCCN [Comparative Example 2, Diethylenetriamine, reference compound]	300	127.8	127.8	1632	9.7
NCc1ccc(CN)o1 [Example 2, 2,5-bisaminomethylfuran]	306	85.0	154.2	890	9
NCCN1CCOCC1 [Example 4, 4-(2-aminoethyl)morpholine]	400	81.5	145.0	862	10.1
